pEC50: −log10 of the molar value. Positions of bridges follow the written chain, without caps; N, C: chain ends. Non-standard residues stand in square brackets, D forms with d. Residues, ends and D or L forms follow the SMILES beside them. 2Pal = N[C@@H](Cc1ccccn1)C(=O)O; Cit = NC(=O)NCCC[C@H](N)C(=O)O; Nle = CCCC[C@H](N)C(=O)O; Aib = CC(C)(N)C(=O)O
Assays:
Assay type in all cases: cell-based
human MC3R = biological target: T1, human MC3R (Homo sapiens, UniProt P41968); experiment: split-luciferase cAMP sensor assay, agonist mode (measurement window 1), hMC3R; conditions: for Emax: % maximal activation, read-out: MC3R cAMP % max activation; for Emax / pEC50: agonist mode; for pEC50: HEK-293 cells stably expressing hMC3R, read-out: MC3R cAMP EC50; for MC4R selectivity vs MC3R: MC4R versus MC3R
T1 construct: expressed in transfected cells; host or cells: HEK-293 cells stably expressing the GScAMP22F split-luciferase cAMP sensor (parent reporter line from Promega); MC3R clone generated in-house, G418 selection
How it was run: (§1)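 Live stable cell lines carrying receptor plus GloSensor cAMP22f split-luciferase, loaded with 4% D-luciferin in serum-free medium (~1% serum estimated during assay). Luminescence recorded during in-line peptide addition; direct agonist effect read in window 1, with 20 μM forskolin as normalization reference. EC50 from four-parameter sigmoid fit.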

human MC4R = biological target: T2, human MC4R (Homo sapiens, UniProt P32245); experiment: split-luciferase cAMP sensor assay, agonist mode (measurement window 1), hMC4R; conditions: agonist mode; for Emax: % maximal activation, read-out: MC4R cAMP % max activation; for pEC50: HEK-293 cells stably expressing hMC4R, read-out: MC4R cAMP EC50
T2 construct: host or cells: HEK-293 cells stably expressing the GScAMP22F split-luciferase cAMP sensor and hMC4R, G418 selection
How it was run: as §1

human MC1R = biological target: T3, human MC1R (Homo sapiens, UniProt Q01726); experiment: split-luciferase cAMP sensor assay, agonist mode, hMC1R; conditions: MC4R versus MC1R
T3 construct: expressed in transfected cells; host or cells: HEK-293 cells stably expressing hMC1R and the GScAMP22F cAMP sensor
Method: FIG. 4A-B. (A) Pharmacological properties of exemplary MC4R agonist peptides, including those with improved efficacy in the MC4R+/− mouse (CTX-1211, CTX-1227, and CTX-1228). Concentration-response agonist curves for peptides indicated at the human MC4R (red), human MC3R (blue), human MC5R (green), and human MC1R (black) were determined by a split-luciferase cAMP sensor dynamic assay in HEK-293 cells stably expressing the hMC1R, hMC3R, hMC4R, or hMC5R and the GScAMP22F cAMP sensor. Each data point represents the mean±SEM of two experiments with three replicates each per experiment. Data is normalized to the ECmax of α-MSH. (B) Same as above, for peptides representing reduced activity at the hMC1R. Inset tables indicate EC50 values for the ligand indicated for each receptor.
The assay for the determination of the cAMP response in live cells was described previously. (Yu et al., 2020, Science 368, 428-433; incorporated by reference in its entirety). Cells were seeded at a density of 20,000 cells per well using 384-well poly-D lysine-coated, clear bottom, and black-wall assay plates (Corning Inc. Corning, NJ). Cells were allowed to attach to the plates for 18 to 24 h after which growth media was removed and 20 μl of 4% D-luciferin (Promega) in CO2 independent, serum-free medium (Thermo Fisher Scientific) was added to each well. The luciferase substrate was allowed to permeate the cells for 120 min at 37° C. Intracellular cAMP levels were measured using an FDSS 7000EX Functional Drug Screening System (Hamamatsu Photonics, Hamamatsu, Japan) in the Center for Chemical Genomics at the Life Sciences Institute. This instrument allowed the in-line addition of test-peptides and receptor agonists while simultaneously acquiring the luminescence signal from live cells. Assay read steps were set as follows: baseline acquisition of 2 min, the addition of 10 μl of varying 3× concentrations of test-peptides or vehicle followed by 11 min measurement (measurement window 1), and 10 μl addition of 4× concentration of the endogenous melanocortin agonist α-MSH (Bachem, Bubendorf, Switzerland) followed by an additional 11 min response measurement (measurement window 2). The resulting final concentration of α-MSH was close to the respective receptor EC90 dose for each receptor. Intraplate concentration response curves for α-MSH and SHU-9119 (Phoenix Pharmaceuticals, Burlingame CA) were included as reference controls. A submaximal forskolin (20 μM) concentration was also included to serve as a normalization reference to account for cell number variations and differences in assay transducer efficiency between cell lines.
With this set up it was possible to evaluate the direct effect of the test-peptides on the MC3R and MC4R cell lines during measurement window 1, while the antagonist profile in the presence of EC90 α-MSH was determined on measurement window 2. For data analysis baseline luminescence (i.e. the maximum luminescence signal from the initial 0 to 2 min window) was subtracted from the maximum luminescence obtained during measurement window 1 (2 to 13 min) and measurement window 2 (13 to 24 min) to yield the test-peptide elicited responses. EC50 or IC50 potency values were determined by non-linear regression by fitting the data to a sigmoid four-parameter variable slope model using the GraphPad Prism version 8.4 software package (San Diego CA).

T2 sequence (P32245 whole entry): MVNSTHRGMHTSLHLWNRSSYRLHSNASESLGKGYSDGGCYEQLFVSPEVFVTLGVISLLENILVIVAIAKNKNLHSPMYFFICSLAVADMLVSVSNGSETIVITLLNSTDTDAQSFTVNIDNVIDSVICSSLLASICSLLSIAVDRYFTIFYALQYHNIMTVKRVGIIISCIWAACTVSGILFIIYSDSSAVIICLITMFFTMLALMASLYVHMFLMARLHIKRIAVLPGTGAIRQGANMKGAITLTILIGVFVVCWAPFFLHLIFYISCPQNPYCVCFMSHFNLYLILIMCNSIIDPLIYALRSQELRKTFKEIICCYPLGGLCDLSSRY
T1 sequence (P41968 whole entry): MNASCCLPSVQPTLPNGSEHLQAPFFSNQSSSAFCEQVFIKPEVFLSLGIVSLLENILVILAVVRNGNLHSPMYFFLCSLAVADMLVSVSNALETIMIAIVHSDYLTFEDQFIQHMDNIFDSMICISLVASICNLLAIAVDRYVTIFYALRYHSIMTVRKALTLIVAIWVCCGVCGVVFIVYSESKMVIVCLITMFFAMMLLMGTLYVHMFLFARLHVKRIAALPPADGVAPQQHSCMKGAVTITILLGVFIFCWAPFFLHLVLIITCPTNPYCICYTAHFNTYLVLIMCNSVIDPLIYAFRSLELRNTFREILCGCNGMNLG
T3 sequence (Q01726 whole entry): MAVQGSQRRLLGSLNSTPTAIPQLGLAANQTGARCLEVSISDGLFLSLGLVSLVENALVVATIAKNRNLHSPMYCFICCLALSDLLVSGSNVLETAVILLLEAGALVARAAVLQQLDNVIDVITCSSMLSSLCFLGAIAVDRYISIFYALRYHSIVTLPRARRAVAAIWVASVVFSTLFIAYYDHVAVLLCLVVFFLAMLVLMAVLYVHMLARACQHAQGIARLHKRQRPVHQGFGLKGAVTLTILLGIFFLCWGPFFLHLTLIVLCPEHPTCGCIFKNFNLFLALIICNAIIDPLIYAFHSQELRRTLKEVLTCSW

Compound	Emax (human MC3R)	pEC50 (human MC3R)	MC4R selectivity vs MC3R (human MC3R)	Emax (human MC4R)	MC4R selectivity vs MC1R (human MC1R)	pEC50 (human MC4R)
CC(=O)N[C@@H](CCCNC(=N)N)C(=O)N[C@H]1CSSC[C@@H](C(N)=O)NC(=O)[C@@H](Cc2c[nH]c3ccccc23)NC(=O)[C@H](CCCNC(=N)N)NC(=O)[C@@H](Cc2ccccc2)NC(=O)[C@H](Cc2c[nH]cn2)NC(=O)C(C)(C)NC1=O [CTX-1296, Arg-cyclo(Cys-Aib-His-D-Phe-Arg-D-Trp-Cys)]	93%	8.00	22	99%	11	–
C[C@H]1NC(=O)CSC[C@@H](C(N)=O)NC(=O)[C@H](Cc2ccccc2)NC(=O)[C@H](CCCNC(=N)N)NC(=O)[C@@H](Cc2ccccc2)NC(=O)[C@H](CCCNC(N)=O)NC1=O [CTX-1658, Thioether-cyclo(D-Ala-Cit-D-Phe-Arg-Phe-Cys)] ({CH2CO}-[dA][Cit][dF]RFC-NH2; thioether N-6)	–	< 5.00	Not active	–	Not active	< 5.00
CCCC[C@H](NC(=O)[C@H](CCCNC(=N)N)NC(C)=O)C(=O)N[C@H]1CSSC[C@@H](C(N)=O)NC(=O)[C@H](Cc2c[nH]c3ccccc23)NC(=O)[C@H](CCCNC(=N)N)NC(=O)[C@@H](Cc2ccccc2)NC(=O)[C@H](Cc2ccccn2)NC1=O [CTX-1619, Arg-Nle-cyclo(Cys-Pal(2′)-D-Phe-Arg-Trp-Cys)] (Ac-R[Nle]C[2Pal][dF]RWC-NH2; disulfide 3-8 (inferred))	84%	–	13	99%	86	8.59
N=C(N)NCCC[C@@H]1NC(=O)[C@@H](Cc2ccccc2)NC(=O)[C@H](Cc2c[nH]cn2)NC(=O)CNC(=O)CSC[C@@H](C(N)=O)NC(=O)[C@H](Cc2ccccc2)NC1=O [CTX-1653, Thioether-cyclo(Gly-His-D-Phe-Arg-Phe-Cys)] ({CH2CO}-GH[dF]RFC-NH2; thioether N-6)	–	< 5.00	>8	83%	0.83	5.91
CCCC[C@H](NC(=O)[C@H](CCCNC(=N)N)NC(C)=O)C(=O)N[C@H]1CSSC[C@@H](C(N)=O)NC(=O)[C@@H](Cc2c[nH]c3ccccc23)NC(=O)[C@H](CCCNC(=N)N)NC(=O)[C@@H](Cc2ccccc2)NC(=O)[C@H](CCCNC(=N)N)NC1=O [CTX-1616, Arg-Nle-cyclo(Cys-Arg-D-Phe-Arg-D-Trp-Cys)] (Ac-R[Nle]CR[dF]R[dW]C-NH2; disulfide 3-8)	78%	–	3.78	93%	1.51	7.80
CC[C@H]1NC(=O)[C@@H](NC(=O)[C@H](CCCNC(=N)N)NC(C)=O)CSSC[C@@H](C(N)=O)NC(=O)[C@H](Cc2c[nH]c3ccccc23)NC(=O)[C@H](CCCNC(=N)N)NC(=O)[C@@H](Cc2ccccc2)NC(=O)[C@H](Cc2c[nH]cn2)NC1=O [CTX-1295, Arg-cyclo(Cys-D-Abu-His-D-Phe-Arg-Trp-Cys)]	97%	8.80	6.31	102%	2.79	9.60
CC1(C)NC(=O)CSC[C@@H](C(N)=O)NC(=O)[C@H](Cc2c[nH]c3ccccc23)NC(=O)[C@H](CCCNC(=N)N)NC(=O)[C@@H](Cc2ccccc2)NC(=O)[C@H](CCCNC(N)=O)NC1=O [CTX-1649, Thioether-cyclo(Aib-Cit-D-Phe-Arg-Trp-Cys)] ({CH2CO}-[Aib][Cit][dF]RWC-NH2; thioether N-6)	79%	–	72	97%	1652	–
C[C@H]1NC(=O)CSC[C@@H](C(N)=O)NC(=O)[C@H](Cc2c[nH]c3ccccc23)NC(=O)[C@H](CCCNC(=N)N)NC(=O)[C@@H](Cc2ccccc2)NC(=O)[C@H](CCCNC(N)=O)NC1=O [CTX-1643, Thioether-cyclo(D-Ala-Cit-D-Phe-Arg-Trp-Cys)] ({CH2CO}-[dA][Cit][dF]RWC-NH2; thioether N-6)	81%	–	133	111%	261	–
